Assay results reported in patent US4241056A, “Penicillins and salts thereof” (Boehringer Ingelheim GmbH, priority 1978, dated 1980).
Like-named read-outs stand apart in the source and are kept apart here.

Tests used:
[1] = test system: Staphylococcus aureus SG 511; assay: MIC, serial dilution test in the microtiter system; type: cell-based; details: SG511, 18 h, Staph. Aureus SG 511, 37° C., 18-20 hours
Protocol: (§1) The tests were performed according to the method of the serial dilution test in the microtiter system. The effect of the substances on bacteriostasis was examined in a fluid medium. The activity on bacteriostatis was examined at the following concentrations:
(§2) 10 gm of peptone, 8 gm of meat extract-oxoid, 3 gm of sodium chloride, 2 gm of sec. sodium phosphate were diluted with distilled water to 1000 ml (pH 7.2-7.4). Only in the test against streptococci 1% of glucose was added. The age of the primary cultures was about 20 hours. The standardizations of the pathogen suspension was effected by using a photometer according to "Eppendorf" (test tube diameter 14 mm, filter 546 nm) with the aid of the turbidity of a comparison suspension consisting of barium sulfate, this suspension being prepared by addition of 3.0 ml of 1% barium chloride solution to 97 ml of 1% sulfuric acid. After the standardization, streptococcus aronson were further diluted to a concentration of 1:15 and the other germs to a concentration of 1:1500 by menas of a sodium chloride solution.
(§3) 16 mg of the test substance were put into a 10 ml measuring flask and filled up to the mark with the solvent. The further dilution series was standardized with distilled water or the respective solvent.
(§4) The cavities of the microtiter plates were filled with 0.2 ml of nutrient medium. Then, 0.01 ml of the corresponding test substance dilution was added and inoculated with 0.01 ml of the standardized suspension. The bacteria were incubated at 37° C. for 18-20 hours. Control tests merely using the solvent were carried out simultaneously.
(§5) The measurement was carried out macroscopically to determine the minimal inhibitory (threshold) concentration, i.e. the lowest still bacteriostatically effective concentration.
(§6) Staphylococcus aureus SG 511, streptococcus aronson, streptococcus faecalis ATCC 10541, escherichia coli ATCC 9637, 11 775 and escherichia coli 12593/74 (β-lactamase carrier), pseudomonas aeruginosa hamburgensis and ATCC 10145, serratia marcescens ATCC 13 880, klebsiella pneumoniae ATCC 10 031 and 272 and proteus mirabilis hamburgensis.

[2] = test system: escherichia coli 12593/74 (β-lactamase carrier); assay: MIC, serial dilution test in the microtiter system; type: cell-based; details: 18 h, E. coli 12593/74 (β-lactamase carrier), 37° C., 18-20 hours
Protocol: as §1, §2, §3, §4, §5, §6

[3] = test system: escherichia coli ATCC 11775; assay: MIC, serial dilution test in the microtiter system; type: cell-based; details: ATCC11775, 18 h, E. coli ATCC 11775, 37° C., 18-20 hours
Protocol: as §1, §2, §3, §4, §5, §6

[4] = test system: escherichia coli ATCC 9637; assay: MIC, serial dilution test in the microtiter system; type: cell-based; details: ATCC9637, 18 h, E. coli ATCC 9637, 37° C., 18-20 hours
Protocol: as §1, §2, §3, §4, §5, §6

[5] = test system: klebsiella pneumoniae 272; assay: MIC, serial dilution test in the microtiter system; type: cell-based; details: 18 h, klebs pneum. 272, 37° C., 18-20 hours
Protocol: as §1, §2, §3, §4, §5, §6

[6] = test system: klebsiella pneumoniae ATCC 10 031; assay: MIC, serial dilution test in the microtiter system; type: cell-based; details: 18 h, klebs pneum ATCC 10031, 37° C., 18-20 hours
Protocol: as §1, §2, §3, §4, §5, §6

[7] = test system: proteus mirabilis hamburgensis; assay: MIC, serial dilution test in the microtiter system; type: cell-based; details: 18 h, prot. mirabilis, 37° C., 18-20 hours
Protocol: as §1, §2, §3, §4, §5, §6

[8] = test system: pseudomonas aeruginosa ATCC 10145; assay: MIC, serial dilution test in the microtiter system; type: cell-based; details: ATCC10145, 18 h, pseud. aerug. ATCC 10145, 37° C., 18-20 hours
Protocol: as §1, §2, §3, §4, §5, §6

[9] = test system: pseudomonas aeruginosa hamburgensis; assay: MIC, serial dilution test in the microtiter system; type: cell-based; details: 18 h, pseud. aerug. hamb., 37° C., 18-20 hours
Protocol: as §1, §2, §3, §4, §5, §6

[10] = test system: serratia marcescens ATCC 13 880; assay: MIC, serial dilution test in the microtiter system; type: cell-based; details: ATCC13, 18 h, serrat marcesc., 37° C., 18-20 hours
Protocol: as §1, §2, §3, §4, §5, §6

streptococcus aronson = assay: MIC, serial dilution test in the microtiter system; type: cell-based; details: 18 h, strept. aronson, 1% glucose added, 37° C., 18-20 hours
Protocol: as §1, §2, §3, §4, §5, §6

[11] = test system: streptococcus faecalis ATCC 10541; assay: MIC, serial dilution test in the microtiter system; type: cell-based; details: Enterococcus faecalis, ATCC10541, 18 h; strept. faecal.; 37° C., 18-20 hours
Protocol: as §1, §2, §3, §4, §5, §6

[12] = Serum (blood) level in rats; type: in vivo; details: rat, average from 3 rats; for concentration at 0.5 h: 30 min.; for concentration at 1 h: 60 min.; for concentration at 2 h: 120 min.
Protocol: For the determination of the serum level in rats, typical representatives of the penicillins according to the invention were administered at a dosage of 10 mg/kg subcutaneously or 100 mg/kg per os to groups of 3 female FW 49 rats (weight 100 to 130 gm) each. Blood tests taken from the heart were worked up, and the obtained sera were tested by the cylinder test-agar diffusion method on plates with sarcina lutea ATCC 15957. The samples were compared with standard curves.

E. coli ATCC 11775 = assay: In vivo activity against experimental infection in mice; design: species or system mouse (NMRI); details: Escherichia coli, 168 h, 7 days observation, read-out: ED50 (dose at which 50% of the animals survived)
Protocol: (§7) A number of compounds of this invention were tested in vivo in mice against experimental infections. Bacteria E. coli ATCC 11775 and pseudomonas aeruginosa walter were used as pathogens. An intraperitoneal infection with 0.2 ml of a 5% mucin suspension of the bacteria was induced. This corresponds to about 2×10^6 germs E. coli and 8×10^5 germs pseudomonas/mouse. Female NMRI mice were divided into groups of 10 animals each, two control groups remained untreated, the remaining groups were treated with different doses of the respective penicillins for the determination of the ED50 (dose at which 50% of the animals survived). The groups with the E. coli infection were treated with the substance 3 times on the first day (1, 4 and 7 hours post-infectionem) and for 2 days thereafter twice a day. The groups with the pseudomonas infection were treated with the substance applied 6 times on the first day (1, 3, 6, 9, 12, and 15 hours post-infectionem) and for 2 days thereafter twice a day. The observation time was in both cases 7 days.

[13] = test system: pseudomonas aeruginosa walter; assay: as above; design: species or system mouse (NMRI); details: sc, 168 h, subcutaneous, 7 days observation, read-out: ED50 (dose at which 50% of the animals survived)
Protocol: as §7

Pseudomonas = details: in vivo as well as in vitro; cited from earlier work

| Compound | MIC [1] | MIC [2] | MIC [3] | MIC [4] | MIC [5] | MIC [6] | MIC [7] | MIC [8] | MIC [9] | MIC [10] | MIC (streptococcus aronson) | MIC [11] | concentration at 1 h ([12]; oral 100 mg/kg) | concentration at 2 h ([12]; oral 100 mg/kg) | concentration at 1 h ([12]; sc, subcutaneous 10 mg/kg) | concentration at 2 h ([12]; sc, subcutaneous 10 mg/kg) | ED50 (E. coli ATCC 11775; ATCC11775, sc, subcutaneous) | other results |
| --- | --- | --- | --- | --- | --- | --- | --- | --- | --- | --- | --- | --- | --- | --- | --- | --- | --- | --- |
| CC1(C)S[C@@H]2[C@H](NC(=O)[C@H](NC(=O)Nc3cncnc3O)c3ccc(O)cc3)C(=O)N2[C@H]1C(=O)O [Compound A, D-α-[3-(4-hydroxy-5-pyrimidyl)-ureido]-p-hydroxybenzylpenicillin sodium] | 0.3 µg/mL | > 80 µg/mL | 2.5 µg/mL | 2.5 µg/mL | 80 µg/mL | 80 µg/mL | 0.6 µg/mL | 2.5 µg/mL | 5 µg/mL | 5 µg/mL | 0.08 µg/mL | 10 µg/mL | 9600 ng/mL | 2900 ng/mL | 8600 ng/mL | 400 ng/mL | 6 mg/kg | concentration at 0.5 h ([12]; oral 100 mg/kg): 9100 ng/mL; concentration at 0.5 h ([12]; sc, subcutaneous 10 mg/kg): 9300 ng/mL; ED50 (E. coli ATCC 11775; ATCC11775, po, peroral): 50 mg/kg; ED50 [13]: 50 mg/kg |
| CC1(C)S[C@@H]2[C@H](NC(=O)C(C(=O)O)c3ccccc3)C(=O)N2[C@H]1C(=O)O (some centres unmarked) [Carbenicillin] | – | – | – | – | – | – | – | – | – | – | – | – | – | – | – | – | – | antipseudomonal activity (Pseudomonas): only a poor activity |
| CC1(C)S[C@@H]2[C@H](NC(=O)[C@H](NC(=O)Nc3cnc(Cc4ccc(Cl)cc4)nc3O)c3ccc(O)cc3)C(=O)N2[C@H]1C(=O)O [D, D-α-[3-(2-p-chlorobenzyl-4-hydroxy-5-pyrimidyl)-ureido]-p-hydroxybenzyl-penicillin sodium] | 0.08 µg/mL | 80 µg/mL | 1.25 µg/mL | 2.5 µg/mL | 10 µg/mL | 5 µg/mL | 1.25 µg/mL | 2.5 µg/mL | 5 µg/mL | 1.25 µg/mL | 0.02 µg/mL | 10 µg/mL | 4100 ng/mL | 1000 ng/mL | 7100 ng/mL | 300 ng/mL | 9 mg/kg | – |
| CC1(C)S[C@@H]2[C@H](NC(=O)[C@H](NC(=O)Nc3cnc(Nc4ccccc4)nc3O)c3ccc(O)cc3)C(=O)N2[C@H]1C(=O)O [G, D-α-[3-(2-anilino-4-hydroxy-5-pyrimidyl)-ureido]-p-hydroxy-benzyl-penicillin sodium] | 0.3 µg/mL | > 80 µg/mL | 1.25 µg/mL | 0.6 µg/mL | 5 µg/mL | 10 µg/mL | 2.5 µg/mL | 2.5 µg/mL | 5 µg/mL | 0.3 µg/mL | 0.08 µg/mL | 5 µg/mL | 600 ng/mL | 100 ng/mL | 5600 ng/mL | 1500 ng/mL | 8 mg/kg | – |
